From US11130960B2, “Methods for conferring or enhancing herbicide resistance on plants and/or alga with protoporphyrinogen oxidase variants” (FARM HANNONG CO., LTD., priority 2014, dated 2021)
Entries after “also recorded” stand apart in the source; their conditions may differ.

Columns and labels:
CyPPO2 transformants = assay: Seed germination / growth on ½ MS medium containing herbicide; format: in vivo, Arabidopsis thaliana; details: for germination / growth on herbicide medium after 2 weeks: ½ MS medium with 70 nM Tiafenacil
Procedure: (§1) To examine tiafenacil resistance of T2 generation seeds which survived under treatment of 1 μM tiafenacil, among the CyPPO2 and CyPPO8 transformants, Arabidopsis thaliana seeds were sown in ½ MS medium (1.125 g/L of MS salt, 10 g/L of sucrose, 7 g/L of Agar) containing 70 nM tiafenacil. […] Therefore, survival under 70 nM tiafenacil means that a plant has resistance against tiafenacil.
(§2) In Arabidopsis thaliana transformant including CyPPO2 or CyPPO8 gene, which was obtained by transformation using the plant transformation vector prepared in Example 6, the PPO activity-inhibiting herbicide-resistant gene and glufosinate-resistant gene are expressed at the same time. Therefore, it was examined whether cross-treatment of Arabidopsis thaliana transformant with two herbicides, namely, PPO activity-inhibiting herbicide and glufosinate is effective for weed control. To this end, seeds of CyPPO2 and BAR gene-inserted Arabidopsis thaliana transformant, or CyPPO8 and BAR gene-inserted Arabidopsis thaliana transformant were sterilized and treated at low temperature of 4° C. for 2 days. The seeds were sown in a ½ MS medium (Duchefa), a ½MS medium containing 70 nM Tiafenacil, a ½MS medium containing 50 uM glufosinate, or a ½MS medium containing 70 nM Tiafenacil and 50 uM glufosinate, and grown at 23° C. under 16 hour-light/8 hour-dark conditions for 7-14 days. Arabidopsis thaliana on the herbicide media was CyPPO2 or CyPPO8-transformed seed and the wild-type Col0 as a control, respectively. The transformant and the control were cultured on herbicide media. After 2 weeks, they were examined.
(§3) In Example 9, it was confirmed that Arabidopsis thaliana transformant prepared in the present invention has resistance against the two PPO-based herbicides, Tiafenacil and Saflufenacil at the same time, and therefore, it was tested whether the cross-treatment of Arabidopsis thaliana transformant with Tiafenacil and Saflufenacil is effective for weed control. To this end, seeds of CyPPO2 or CyPPO8 gene-inserted Arabidopsis thaliana transformant were sterilized and treated at low temperature of 4° C. for 2 days. The seeds were sown in a ½ MS medium, a ½MS medium containing 70 nM Tiafenacil, a ½MS medium containing 70 nM Saflufenacil, or a ½MS medium containing 35 nM Tiafenacil and 35 nM Saflufenacil, and grown at 23° C. under 16 hour-light/8 hour-dark conditions for 7-14 days. Arabidopsis thaliana on the herbicide media was CyPPO2 or CyPPO8-transformed seed and the wild-type Col0 as a control, respectively. The transformant and the control were cultured on herbicide media. After 2 weeks, they were examined.

CyPPO8 transformants = assay: as above; format: in vivo, Arabidopsis thaliana; details: for germination / growth on herbicide medium after 2 weeks: ½ MS medium with 70 nM Tiafenacil
Procedure: as §1, §2, §3

[1] = system: wild-type Arabidopsis thaliana (Col-0); assay: as above; format: in vivo; details: for germination / growth on herbicide medium after 2 weeks: ½ MS medium with 70 nM Tiafenacil
Procedure: as §1, §2, §3

[2] = system: Halothece sp. PCC 7418 strain; assay: Herbicide resistance test of Halothece sp. PCC 7418 strain in CRBIP medium; format: cell-based; details: 8 days after treatment, CRBIP Medium 1538
Procedure: Halothece sp. PCC 7418 strain was cultured in CRBIP Medium 1538 (Institut Pasteur, France). CRBIP Medium 1538 is a mixed medium of ASNIII and Turks Island Salts 4× at a ratio of 1:1(v/v), and ASNIII medium was composed of 25.0 g of NaCl, 3.5 g of MgSO4.7H2O, 2.0 g of MgCl2.6H2O, 0.5 g of KCl, 0.5 g of CaCl2.2H2O, 0.75 g of NaNO3, 0.02 g of K2HPO4.3H2O, 0.04 g of NaCO3, 2.5 ml of ammonium iron(III) citrate/citric acid monohydrate solution [a mixture of 300 mg of ammonium iron(III) citrate, 300 mg of citric acid monohydrate, and 250 ml of distilled water], 2.5 ml of magnesium titriplex dihydrate solution [a mixture of 0.1 g of Mg EDTA and 500 ml of distilled water], 1 ml of trace metal A5+Co [a mixture of 2.86 g of H3BO3, 1.81 g of MnCl2.4H2O, 0.222 g of ZnSO4.7H2O, 0.39 g of NaMoO4.2H2O, 0.079 g of CuSO4.5H2O, 0.049 g of Co(NO3)2.6H2O and 1000 ml of distilled water], and 1000 ml of distilled water. Turks Island Salts 4× was composed of 112 g of NaCl, 2.68 g of KCl, 22 g of MgCl2.6 H2O, 27.7 g of MgSO4.7 H2O, 5.8 g of CaCl2.2 H2O, and 1000 ml of distilled water. ASNIII medium and Tursk Island Salts 4× were autoclaved at 120° C. for 20 minutes, respectively and then mixed at a ratio of 1:1(v/v).
5 ml of the above culture medium was added to a test tube, and 2 or 10 μM of Tiafenacil was added thereto or not. The seed-cultured Halothece sp. […]

[3] = system: mutant AtPPO1 transformant; assay: Seed germination on ½ MS medium containing herbicide; format: in vivo, Arabidopsis thaliana; details: ½ MS medium containing 70 nM tiafenacil
[4] = 70 nM Saflufenacil, or 35 nM Tiafenacil and 35 nM Saflufenacil

Row | Structure (SMILES) | germination / growth on herbicide medium after 2 weeks (CyPPO2 transformants; [4]) | germination / growth on herbicide medium after 2 weeks (CyPPO8 transformants; [4]) | germination / growth on herbicide medium after 2 weeks [1, 4] | concentration at which growth of the strain was maintained [2] [µM] | germination / growth on herbicide medium after 2 weeks (CyPPO2 transformants; CyPPO2 and BAR gene-inserted, 50 uM glufosinate, or both) | seed germination (CyPPO2 transformants; ½ MS medium containing 70 nM tiafenacil, T2 generation lines no. 1 and 49) | germination / growth on herbicide medium after 2 weeks (CyPPO8 transformants; CyPPO8 and BAR gene-inserted, 50 uM glufosinate, or both) | seed germination (CyPPO8 transformants; ½ MS medium containing 70 nM tiafenacil, T2 generation lines no. 6, 16 and 40) | seed germination ([1]; ½ MS medium containing 50 nM tiafenacil) | seed germination ([1]; ½ MS medium containing 70 nM tiafenacil) | germination / growth on herbicide medium after 2 weeks ([1]; 50 uM glufosinate, or 70 nM Tiafenacil and 50 uM glufosinate) | seed germination [3]
1 | CC(C)N(C)S(=O)(=O)NC(=O)c1cc(-n2c(=O)cc(C(F)(F)F)n(C)c2=O)c(F)cc1Cl [Saflufenacil] | normally grew | normally grew | not germinated | – | – | – | – | – | – | – | – | –
2 | COC(=O)CCNC(=O)C(C)Sc1cc(-n2c(=O)cc(C(F)(F)F)n(C)c2=O)c(F)cc1Cl (stereo not drawn) [Tiafenacil] | normally grew | normally grew | not germinated | 10 | normally grew | showed germination | normally grew | showed germination | reduced seed germination | no normal seed germination and was killed; also recorded: showed no germination | not germinated | showed germination
